Results taken from patent publication US12275703B2, “Highly purified batches of pharmaceutical grade migalastat and methods of producing the same” (Amicus Therapeutics, Inc., priority 2020, dated 2025).

System: bacterial reverse mutation
Test: bacterial reverse mutation (Ames) test
Assay type: cell-based
Details: for Ames Positive?: bacterial reverse mutation (Ames) test; for Designated Genotoxin?: designation from Derek and Ames outcome
Description: The starting materials, reagents, intermediates, and process impurities generated in the manufacturing process for migalastat hydrochloride were assessed for their potential genotoxicity using in silico (Derek for Windows v13 Lhasa Ltd) screening software. The chemical structures which were DEREK negative were evaluated using Leadscope (Model Applier and Expert Alerts). […] Where possible, the genotoxicity of these materials was then assessed via the use of the bacterial reverse mutation (Ames) test.

| SMILES | Ames Positive? | Designated Genotoxin? | other results |
| --- | --- | --- | --- |
| CC(C)(C)C(=O)OC[C@@H](N=[N+]=[N-])[C@@H]1O[C@@H](OC(=O)C(C)(C)C)[C@H](OC(=O)C(C)(C)C)[C@H]1OC(=O)C(C)(C)C [5-azido-5-deoxy-1,2,3,6-tetrapivaloyl-D-galactofuranoside] | No | No |  |
| CC(C)(C)C(=O)OC[C@@H](OS(=O)(=O)C(F)(F)F)[C@@H]1O[C@@H](OC(=O)C(C)(C)C)[C@H](OC(=O)C(C)(C)C)[C@H]1OC(=O)C(C)(C)C [Compound D] | not sufficiently stable for Ames testing | designated as genotoxins | Ames Positive? (listed as drawing 74): Insufficiently stable for Ames test; Designated Genotoxin? (listed as drawing 74): Yes |
| CC(C)(C)C(=O)OC[C@H](OS(=O)(=O)C(F)(F)F)[C@@H]1O[C@@H](OC(=O)C(C)(C)C)[C@H](OC(=O)C(C)(C)C)[C@H]1OC(=O)C(C)(C)C [Compound F] | not sufficiently stable for Ames testing | designated as genotoxins | Ames Positive? (listed as drawing 75): Insufficiently stable for Ames test; Designated Genotoxin? (listed as drawing 75): Yes |
| CC(C)(C)C(=O)OC[C@H](N=[N+]=[N-])[C@@H]1O[C@@H](OC(=O)C(C)(C)C)[C@H](OC(=O)C(C)(C)C)[C@H]1OC(=O)C(C)(C)C [Compound N] | No | No |  |
| [N-]=[N+]=N[C@@H]1CO[C@@](O)(CO)[C@@H](O)[C@H]1O [Compound P] | Ames positive | confirmed as genotoxins | Ames Positive? (listed as drawing 79): Yes; Designated Genotoxin? (listed as drawing 79): Yes |
| [N-]=[N+]=N[C@H](CO)[C@@H]1O[C@@H](O)[C@H](O)[C@H]1O [Compound Q] | Ames positive | confirmed as genotoxins | Ames Positive? (listed as drawing 78): Yes; Designated Genotoxin? (listed as drawing 78): Yes |
| Cl.O[C@@H]1[C@H](O)[C@@H](O)CN[C@@H]1CCl [Compound X] | Ames positive | confirmed as genotoxins | Ames Positive? (listed as drawing 80): Yes; Designated Genotoxin? (listed as drawing 80): Yes |
| CCCl [Ethyl chloride] | Yes | Yes |  |
